Legend:
[1] = test system: U-251, LN-229, T98G and LN-18 glioblastoma cells; assay: luminescence-based quantification of cell viability; set-up: species or system human; conditions: over five days
Procedure: To investigate the speed of cell elimination by either method, Cas9 expressing TMZ-sensitive U-251 and LN-229, and TMZ-resistant T98G and LN-18, glioblastoma cells were treated with TMZ or these cells were transduced with lentiviral vectors expressing sgCIDEs.

[2] = test system: Cas9 expressing U-251, LN-229, T98G, and LN-18 glioblastoma cells; assay: cell cycle analysis (PI staining, flow cytometry); assay type: cell-based, human; conditions: one to five days; TMZ 50 μM or 100 μM
Procedure: The effects of genome shredding on cell cycle progression were then assessed. Cells were treated with TMZ or sgCIDEs for one to five days and then stained with PI after fixation for analysis by flow cytometry. […] Increases of the Sub-G1 population was more prominent in TP53-mutant U-251 cells compared LN-229 with wild-type TP53, consistent with previous observations that TP53 status affects resolution of the G2/M arrest.

[3] = test system: Cas9 expressing U-251, LN-229, T98G, and LN-18 cells; assay: colony formation assay (crystal violet); assay type: cell-based, human; conditions: all four tested GBM cell lines, two weeks
Procedure: Because recurrent tumors develop from cells that escape treatment, either by avoiding exposure, tolerating the effects, or developing resistance, colony formation assays were performed to evaluate the robustness of CRISPR-Cas genome shredding in eliminating target cells.
TMZ-resistant LN-229 cell lines were isolated to determine which types of treatments could overcome such resistance. Cas9 expressing U-251, LN-229, T98G, and LN-18 cells were stably transduced with lentiviral vectors expressing sgNT-1/2 or sgCIDE-1/2/3/6/8/10 (Table 2), and seeded at 100, 1,000, and 10,000 cells per 6-well plate. Control cells were treated with DMSO or TMZ (50 μM).

[4] = test system: HEK293T and HAP1 cells; assay: mammalian competitive proliferation assay, cells expressing Cas9 WT; assay type: cell-based, human; conditions: WT Cas9, eight-day assay period
Source text: (§1) For assessment of CRISPR-Cas programmed cell depletion using guide RNAs targeting an essential gene (RPA1) or sgCIDEs targeting hundreds of thousands of loci within the genome, cells were stably transduced with a lentiviral vector expressing Cas9-wt (pCF226) or ProCas9Flavi (pCF730) and selected on puromycin. Subsequently, these cell lines were further stably transduced with vectors expressing various mCherry-tagged sgRNAs and analyzed as follows: 1) After mixing sgRNA expressing populations with parental cells, the fraction of mCherry-positive cells was quantified over time. Different sgRNAs targeting a neutral gene (sgOR2B6), an essential gene (sgRPA1), >100,000 genomic loci (sgCIDE) and a non-targeting control (sgNT) were compared. 2) Alternatively, the cell lines were partially transduced with lentiviral vectors expressing a GFP-tagged dTEV (pCF736) or WNV (pCF738) protease, and cell depletion quantified by flow cytometry. Depletion of protease-expressing (GFP+) cells was quantified among the sgRNA-positive (mCherry+) population.
The effect of guide RNA expression on cell viability was assessed using a competitive proliferation assay in which cells expressing a specific sgRNA were mixed with parental cells expressing only Cas9 WT, and the mCherry-positive population was followed over time. […] Guide RNAs targeting the essential RPA1 gene depleted over the eight-day assay period.

[5] = test system: HEK293T and HAP1 cells expressing ProCas9Flavi; assay: competitive proliferation assay, cells expressing ProCas9Flavi; assay type: cell-based, human
Source text: as §1
Cas-induced death by editing or ‘CIDE, as an output constrains the performance of ProCas9. The system remains off to minimize genomic damage yet is vigilant to respond to a stimulus. To develop this protease-induced altruistic defense platform, stable expression of the best CIDE guide RNAs (sgCIDE-2, sgCIDE-4) was assessed in conjunction with a genomically integrated ProCas9Flavi cassette to determine cell viability in the absence of a stimulus (FIG. 5B). […] Induction of this stably integrated altruistic defense system was then tested by Flavivirus proteases.

Row | Substance | lethality (cell viability) [1] | cell cycle profile [2] | effect on colony count [3] | depletion of the mCherry-positive population [4] | cell depletion with protease ([5]; ProCas9Flavi cells, WNV protease vs dTEV) | cell depletion in the absence of a stimulus ([5]; genomically integrated ProCas9Flavi)
1 | sgNT-1: non-targeting guide RNA GGCCAAACGTGCCCTGACGG (SEQ ID NO:29) (chemistry not fully specified) [reference compound] | no effect | comparable normal cell cycle profiles | little effect on colony formation |  |  | 
2 | sgRPA1-2: guide RNA to essential gene RPA1, TACCTGGAGCAACTCCCGAG (SEQ ID NO:36) [reference compound] |  | accumulation in S-phase starting at day three, accompanied by increase of the Sub-G1 population |  |  |  | 
3 | sgOR2B6-1: guide RNA to olfactory receptor gene, CATTATTCTAGTGTCACGCC (SEQ ID NO:32) (chemistry not given here) [reference compound] |  | comparable normal cell cycle profiles |  | no depletion |  | 
4 | sgOR2B6-2: guide RNA to olfactory receptor gene, GGGTATGAAGTTTGGTGTCC (SEQ ID NO:33) (chemistry not given here) [reference compound] |  | comparable normal cell cycle profiles |  | no depletion |  | 
5 | sgRPA1-3: guide RNA to essential gene RPA1, ACTTTCGTCAACCAGTTCTA (SEQ ID NO:37) [reference compound] |  | accumulation in S-phase starting at day three, accompanied by increase of the Sub-G1 population |  |  |  | 
6 | sgCIDE-8: guide RNA CTGTAATCCCAGCACTTTGG (SEQ ID NO:8) (chemistry not fully specified) | viral titer-dependent lethality in all four tested glioblastoma cell lines | rapid increase of the Sub-G1 population starting at day one post-transduction | over three log-scales reduction in colony count |  |  | 
7 | sgCIDE-4: guide RNA CGCCTGTAATCCCAGCACTT (SEQ ID NO:4) (chemistry not given here) |  |  |  | rapid elimination of the mCherry-positive population | specific cell depletion | only minimal amounts of cell depletion
8 | sgNT-2: non-targeting guide RNA GCGATGGGGGGGTGGGTAGC (SEQ ID NO:30) (chemistry not fully specified) [reference compound] | no effect | comparable normal cell cycle profiles | little effect on colony formation |  |  | 
9 | sgCIDE-10: guide RNA TTCTCCTGCCTCAGCCTCCC (SEQ ID NO:10) (chemistry not fully specified) | viral titer-dependent lethality in all four tested glioblastoma cell lines | rapid increase of the Sub-G1 population starting at day one post-transduction | over three log-scales reduction in colony count |  |  | 
10 | sgCIDE-6: guide RNA CCCAGCACTTTGGGAGGCCG (SEQ ID NO:6) (chemistry not fully specified) | viral titer-dependent lethality in all four tested glioblastoma cell lines | rapid increase of the Sub-G1 population starting at day one post-transduction | over three log-scales reduction in colony count |  |  | 
11 | sgCIDE-5: guide RNA CCTCGGCCTCCCAAAGTGCT (SEQ ID NO:5) (chemistry not given here) |  |  |  | rapid elimination of the mCherry-positive population |  | 

— patent publication US20230043813A1, “METHODS FOR TARGETED CELL DEPLETION” (The Regents of the University of California, priority 2019, published 2023)
